IC50 data for 25 compounds are collected here from patent US8822468B2 (Novartis AG, priority 2008, dated 2014).

T1 sequence (P08581 969-1390): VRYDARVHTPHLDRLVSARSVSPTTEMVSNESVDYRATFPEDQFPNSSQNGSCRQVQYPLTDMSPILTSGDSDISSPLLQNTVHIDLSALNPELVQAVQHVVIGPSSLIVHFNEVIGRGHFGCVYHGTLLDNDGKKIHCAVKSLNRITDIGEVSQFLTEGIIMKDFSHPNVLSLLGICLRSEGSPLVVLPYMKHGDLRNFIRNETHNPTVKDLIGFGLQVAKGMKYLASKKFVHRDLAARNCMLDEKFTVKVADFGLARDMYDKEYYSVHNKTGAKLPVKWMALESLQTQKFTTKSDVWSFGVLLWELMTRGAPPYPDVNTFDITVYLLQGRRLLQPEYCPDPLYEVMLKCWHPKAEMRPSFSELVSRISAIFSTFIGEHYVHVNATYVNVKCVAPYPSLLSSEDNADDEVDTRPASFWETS

This test has as its target T1, cMET receptor tyrosine kinase (GST-cMET (969-1390)) (Homo sapiens, UniProt P08581).
T1 construct: made in house
Put plainly: EPK cMET profiling assay (LanthaScreen TR-FRET antibody based kinase phosphorylation assay). It is filed as biochemical. As to conditions: purified recombinant GST-cMET (969-1390), 2 μM ATP, 50 nM Fluorescein-PolyEAY, 60 minutes at room temperature; read-out: c-Met IC50. The protocol: A number of compounds of the present invention were assayed in an antibody based kinase phosphorylation assay as follows.
EPK cMET Profiling Assay:
The EPK kinase assay for cMET receptor tyrosine kinase was developed, using the purified recombinant GST-fusion protein, containing the cytoplasmic domain of the enzyme. GST-cMET (969-1390) was purified by affinity chromatography.
The kinase assay is based on the LanthaScreen™ technology. LanthaScreen™ is the detection of Time-Resolved Fluorescence Resonance Energy Transfer (TR-FRET) using lanthanide chelates to measure interactions between various binding partners. In a TR-FRET kinase assay, a long-lifetime lanthanide donor species is conjugated to an antibody that specifically binds to a phosphorylated product of a kinase reaction that is labeled with a suitable acceptor fluorophore. This antibody-mediated interaction brings the lanthanide donor and the acceptor into proximity such that resonance energy transfer can take place, resulting in a detectible increase in the FRET signal.
The kinase reactions were performed in 384 well microtiter plates in a total reaction volume of 9.05 μL. The assay plates were prepared with 0.05 μL per well of test compound in the appropriate test concentration, as described under “preparation of compound dilutions”. The reactions were started by combining 4.5 μL of ATP solution with 4.5 μL of enzyme-substrate mix (consisting of kinase and substrate). The final concentrations in the kinase reactions were 35 mM Tris/HCl, 1 mM DTT, 0.025% Tween20, 10 μM sodium orthovanadate, 0.25% BSA, 0.6% DMSO, 10 mM MgCl2, 3 mM MnCl2, 2 μM ATP, 50 nM Fluorescein-PolyEAY, and 0.3 nM enzyme.
The reactions were incubated for 60 minutes at room temperature and stopped by adding 4.5 μL of stop buffer (50 mM EDTA, 0.04% NP40, 20 mM Tris/HCl).
Subsequently 4.5 μL of detection mix (50 mM Tris/HCl, 2 mM DTT, 0.05% Tween20, 20 μM sodium orthovanadate, 1% BSA, 1.72 μg/ml Tb-PY20 antibody) were added to the stopped reactions. After 30 minutes incubation at room temperature, the plates were measured in a BMG Pherastar fluorescence reader. The effect of compound on the enzymatic activity was in all assays obtained from the linear progress curves and determined from one reading (end point measurement).
Test compounds were dissolved in DMSO (10 mM) and transferred into 1.4 mL flat bottom or V-shaped Matrix tubes carrying a unique 2D matrix. The stock solutions were stored at −20° C. if not used immediately. For the test procedure the vials were defrosted and identified by a scanner whereby a working sheet was generated that guided the subsequent working steps.
Compound dilutions were made in 96 well plates. This format enabled the assay of maximally 40 individual test compounds at 8 concentrations (single points) including 4 reference compounds. The dilution protocol included the production of “pre-dilution plates”, “master plates” and “assay plates”.
Pre-dilution plates: 96 polypropylene well plates were used as pre-dilution plates. A total of 4 pre-dilution plates were prepared including 10 test compounds each on the plate positions A1-A10, one standard compound at A11 and one DMSO control at A12. All dilution steps were done on a HamiltonSTAR robot.
Master plates: 100 μL of individual compound dilutions including standard compound and controls of the 4 “pre-dilution plates” were transferred into a 384 “master plate” including the following concentrations 1,820, […], 182, 54.6, 18.2, 5.46, 1.82 and 0.546 μM, respectively in 90% of DMSO.
Assay plates: Identical “assay plates” were then prepared by pipetting 50 nL each of compound dilutions of the “master plates” into 384-well “assay plates” by means of a HummingBird 384-channel dispenser. These plates were used directly for the assay which was performed in a total volume of 9.05 μL. This led to a final compound concentration of 10, 3.0, 1.0, 0.3, 0.1, 0.03, 0.01 and 0.003 μM and a final DMSO concentration of 0.5% in the assay.
In general terms: In TR-FRET formats the signal depends on donor and acceptor labels being close together.
A word on the IC50: it is the midpoint of a concentration-inhibition curve. For `CC(c1ccc2ncccc2c1Cl)c1cnc2ccc(-c3cnn(CCO)c3)nn12` (racemic) [Example 188, (rac)-2-(4-{3-[1-(5-Chloro-quinolin-6-yl)-ethyl]-imidazo[1,2-b]pyridazin-6-yl}-pyrazol-1-yl)ethanol], the IC50 amounted to 0.0056 µM. The result for `CC(c1ccc2nccn2c1)c1cnc2ccc(-c3cnn(CCO)c3)nn12` (racemic) [Example 189, (rac)-2-{4-[3-(1-Imidazo[1,2-a]pyridin-6-yl-ethyl)-imidazo[1,2-b]pyridazin-6-yl]-pyrazol-1-yl}-ethanol] reads 0.095 µM; that for `CC(c1ccc2n[nH]cc2c1)c1cnc2ccc(-c3cnn(CCO)c3)nn12` (racemic) [Example 190, (rac)-2-(4-{3-[1-(2H-Indazol-5-yl)-ethyl]-imidazo[1,2-b]pyridazin-6-yl}-pyrazol-1-yl)-ethanol], 0.056 µM; that for `CC(c1c(F)cc2ncccc2c1F)c1cnc2ccc(-c3cnn(C)c3)nn12` (racemic) [Example 191, (rac)-5,7-Difluoro-6-{1-[6-(1-methyl-1H-pyrazol-4-yl)-imidazo[1,2-b]pyridazin-3-yl]-ethyl}-quinoline], below 0.003 µM. As to `CC(c1ccc2ncn(C)c2c1)c1cnc2ccc(-c3cnn(C)c3)nn12` (racemic) [Example 206, (rac)-3-[1-(3-Methyl-3H-benzoimidazol-5-yl)-ethyl]-6-(1-methyl-1H-pyrazol-4-yl)-imidazo[1,2-b]pyridazine], the IC50 came out at 0.031 µM. `CC(c1ccc2ncn(CCN3CCCC3)c2c1)c1cnc2ccc(-c3cnn(C)c3)nn12` (racemic) [Example 207, (rac)-6-(1-Methyl-1H-pyrazol-4-yl)-3-{1-[3-(2-pyrrolidin-1-yl-ethyl)-3H-benzoimidazol-5-yl]-ethyl}-imidazo[1,2-b]pyridazine]: the IC50 was 0.31 µM.

Take `CC(c1ccc(O)cc1)c1cnc2ccc(-c3cnn(CCO)c3)nn12` (racemic) [Example 221, (rac)-4-(1-{6-[1-(2-Hydroxy-ethyl)-1H-pyrazol-4-yl]-imidazo[1,2-b]pyridazin-3-yl}-ethyl)-phenol]: the 50% inhibitory concentration (IC50) came out at 0.24 µM. Turning to `CC(c1ccc(O)cc1)c1cnc2ccc(-c3cnn(C)c3)nn12` (racemic) [Example 222, (rac)-4-{1-[6-(1-Methyl-1H-pyrazol-4-yl)-imidazo[1,2-b]pyridazin-3-yl]-ethyl}-phenol], the concentration for half-maximal inhibition (IC50) was 0.25 µM. Regarding `CC(c1ccc2ncccc2c1Cl)c1cnc2ccc(-c3cnn(C4CCNCC4)c3)nn12` (racemic) [Example 223, (rac)-5-Chloro-6-{1-[6-(1-piperidin-4-yl-1H-pyrazol-4-yl)-imidazo[1,2-b]pyridazin-3-yl]-ethyl}-quinoline], the half-maximal inhibitory concentration (IC50) was found to be 0.033 µM. As for `CC(c1ccc2ncccc2c1Cl)c1cnc2ccc(-c3cnn(C)c3)nn12` (racemic) [Example 225, (rac)-5-Chloro-6-{1-[6-(1-methyl-1H-pyrazol-4-yl)-imidazo[1,2-b]pyridazin-3-yl]-ethyl}-quinoline], the IC50 was determined as 0.025 µM.

Regarding `Cn1cc(-c2ccc3ncc(C(O)c4ccc5ncn(C)c5c4)n3n2)cn1` (racemic) [Example 229, (rac)-(3-Methyl-3H-benzoimidazol-5-yl)-[6-(1-methyl-1H-pyrazol-4-yl)-imidazo[1,2-b]pyridazin-3-yl]-methanol], the concentration for half-maximal inhibition (IC50) turned out to be 0.52 µM. Consider `Cn1cc(-c2ccc3ncc(C(O)c4ccc5ncccc5c4F)n3n2)cn1` (racemic) [Example 247, (rac)-(5-Fluoro-quinolin-6-yl)-[6-(1-methyl-1H-pyrazol-4-yl)-imidazo[1,2-b]pyridazin-3-yl]-methanol], for which the half-inhibitory concentration (IC50) was determined as 0.066 µM. Consider `Cn1cc(-c2ccc3ncc(C(O)c4cc5cccnc5cc4F)n3n2)cn1` (racemic) [Example 248, (rac)-7-Fluoro-quinolin-6-yl)-[6-(1-methyl-1H-pyrazol-4-yl)-imidazo[1,2-b]pyridazin-3-yl]-methanol], for which the IC50 came out at 0.37 µM. With `CCn1cc(-c2ccc3ncc(C(O)c4cc5cccnc5cc4F)n3n2)cn1` (racemic) [Example 249, (rac)-[6-(1-Ethyl-1H-pyrazol-4-yl)-imidazo[1,2-b]pyridazin-3-yl]-(7-fluoro-quinolin-6-yl)methanol], the IC50 amounted to 0.38 µM. On to `OC(c1cc2cccnc2cc1F)c1cnc2ccc(-c3cn[nH]c3)nn12` (racemic) [Example 252, (rac)-(7-Fluoro-quinolin-6-yl)-[6-(1H-pyrazol-4-yl)-imidazo[1,2-b]pyridazin-3-yl]-methanol], for which the half-maximal inhibitory concentration (IC50) came to 0.28 µM. Take `CC(c1cc2cccnc2cc1F)c1cnc2ccc(-c3cnn(C)c3)nn12` (racemic) [Example 253, (rac)-7-Fluoro-6-{1-[6-(1-methyl-1H-pyrazol-4-yl)-imidazo[1,2-b]pyridazin-3-yl]-ethyl}-quinoline]: the IC50 was 0.013 µM.

`CC(c1cc2cccnc2cc1F)c1cnc2ccc(-c3cnn(CCO)c3)nn12` (racemic) [Example 255]: the half-maximal inhibitory concentration (IC50) was 0.036 µM. On to `CC(c1cc2cccnc2cc1F)c1cnc2ccc(-c3cnn(C4CCNCC4)c3)nn12` (racemic) [Example 258, (rac)-7-Fluoro-6-{1-[6-(1-piperidin-4-yl-1H-pyrazol-4-yl)-imidazo[1,2-b]pyridazin-3-yl]-ethyl}-quinoline], for which the IC50 is 0.043 µM. With `CC(c1cc2cccnc2cc1F)c1cnc2ccc(-c3cnn(C4CCN(C)CC4)c3)nn12` (racemic) [Example 259, (rac)-7-Fluoro-6-(1-{6-[1-(1-methyl-piperidin-4-yl)-1H-pyrazol-4-yl]-imidazo[1,2-b]pyridazin-3-yl}-ethyl)-quinoline] the figure was 0.023 µM; with `CNC1CCN(c2ccc3ncc(Cc4cc5cccnc5cc4F)n3n2)C1` (racemic) [Example 260, (rac)-{1-[3-(7-fluoro-quinolin-6-ylmethyl)-imidazo[1,2-b]pyridazin-6-yl]-pyrrolidin-3-yl}-methylamine], 0.0052 µM; with `CC(O)(c1c(F)cc2ncccc2c1F)c1cnc2ccc(-c3cnn(CCO)c3)nn12` (racemic) [Example 267, (rac)-1-(5,7-Difluoro-quinolin-6-yl)-1-{6-[1-(2-hydroxy-ethyl)-1H-pyrazol-4-yl]-imidazo[1,2-b]pyridazin-3-yl}-ethanol], 0.26 µM. For `CC(c1cc2cnn(C)c2cc1F)c1cnc2ccc(-c3cnn(C)c3)nn12` (racemic) [Example 278, (rac)-3-[1-(6-Fluoro-1-methyl-1H-indazol-5-yl)-ethyl]-6-(1-methyl-1H-pyrazol-4-yl)-imidazo[1,2-b]pyridazine], the half-inhibitory concentration (IC50) worked out at 0.021 µM. Consider `CC(c1cc2cnn(C)c2cc1F)c1cnc2ccc(-c3cnn(CCO)c3)nn12` (racemic) [Example 279, (rac)-2-(4-{3-[1-(6-Fluoro-1-methyl-1H-indazol-5-yl)-ethyl]-imidazo[1,2-b]pyridazin-6-yl}-pyrazol-1-yl)-ethanol], for which the half-inhibitory concentration (IC50) was found to be 0.015 µM. Consider `CC(c1ccc2nccn2c1)c1cnc2ccc(Cl)nn12` (racemic) [Example 292, (rac)-6-Chloro-3-(1-imidazo[1,2-a]pyridin-6-yl-ethyl)-imidazo[1,2-b]pyridazine], for which the 50% inhibitory concentration (IC50) worked out at 0.08 µM. `CC(c1ccc2nccn2c1)c1cnc2ccc(-c3cnn(C)c3)nn12` (racemic) [Example 293, (rac)-3-(1-Imidazo[1,2-a]pyridin-6-yl-ethyl)-6-(1-methyl-1H-pyrazol-4-yl)-imidazo[1,2-b]pyridazine]: the half-maximal inhibitory concentration (IC50) was determined as 0.023 µM.
